Consider 20 molecules from patent US20130040935A1, “CYCLIC KETO-ENOLS FOR THERAPY” (BAYER INTELLECTUAL PROPERTY GMBH, priority 2010, published 2013).

Read-outs that look alike come from different tables or passages of the source.

For orientation: IC50 means the point on the concentration scale where inhibition reaches its midpoint. The inhibition in vivo is the drop in the measured response relative to a control, in per cent. Higher therefore signals a response far below the control.

Experiment [1] deals with human ACC2 (acetyl-coenzyme A carboxylase 2) (Homo sapiens, UniProt O00763). In words: Human ACC2 enzyme assay, Assay B2 (ADP-Glo). (In ADP-Glo the light output rises with the ADP produced.)
Chain of human ACC2 (acetyl-coenzyme A carboxylase 2) (O00763 27-2458 limits assumed): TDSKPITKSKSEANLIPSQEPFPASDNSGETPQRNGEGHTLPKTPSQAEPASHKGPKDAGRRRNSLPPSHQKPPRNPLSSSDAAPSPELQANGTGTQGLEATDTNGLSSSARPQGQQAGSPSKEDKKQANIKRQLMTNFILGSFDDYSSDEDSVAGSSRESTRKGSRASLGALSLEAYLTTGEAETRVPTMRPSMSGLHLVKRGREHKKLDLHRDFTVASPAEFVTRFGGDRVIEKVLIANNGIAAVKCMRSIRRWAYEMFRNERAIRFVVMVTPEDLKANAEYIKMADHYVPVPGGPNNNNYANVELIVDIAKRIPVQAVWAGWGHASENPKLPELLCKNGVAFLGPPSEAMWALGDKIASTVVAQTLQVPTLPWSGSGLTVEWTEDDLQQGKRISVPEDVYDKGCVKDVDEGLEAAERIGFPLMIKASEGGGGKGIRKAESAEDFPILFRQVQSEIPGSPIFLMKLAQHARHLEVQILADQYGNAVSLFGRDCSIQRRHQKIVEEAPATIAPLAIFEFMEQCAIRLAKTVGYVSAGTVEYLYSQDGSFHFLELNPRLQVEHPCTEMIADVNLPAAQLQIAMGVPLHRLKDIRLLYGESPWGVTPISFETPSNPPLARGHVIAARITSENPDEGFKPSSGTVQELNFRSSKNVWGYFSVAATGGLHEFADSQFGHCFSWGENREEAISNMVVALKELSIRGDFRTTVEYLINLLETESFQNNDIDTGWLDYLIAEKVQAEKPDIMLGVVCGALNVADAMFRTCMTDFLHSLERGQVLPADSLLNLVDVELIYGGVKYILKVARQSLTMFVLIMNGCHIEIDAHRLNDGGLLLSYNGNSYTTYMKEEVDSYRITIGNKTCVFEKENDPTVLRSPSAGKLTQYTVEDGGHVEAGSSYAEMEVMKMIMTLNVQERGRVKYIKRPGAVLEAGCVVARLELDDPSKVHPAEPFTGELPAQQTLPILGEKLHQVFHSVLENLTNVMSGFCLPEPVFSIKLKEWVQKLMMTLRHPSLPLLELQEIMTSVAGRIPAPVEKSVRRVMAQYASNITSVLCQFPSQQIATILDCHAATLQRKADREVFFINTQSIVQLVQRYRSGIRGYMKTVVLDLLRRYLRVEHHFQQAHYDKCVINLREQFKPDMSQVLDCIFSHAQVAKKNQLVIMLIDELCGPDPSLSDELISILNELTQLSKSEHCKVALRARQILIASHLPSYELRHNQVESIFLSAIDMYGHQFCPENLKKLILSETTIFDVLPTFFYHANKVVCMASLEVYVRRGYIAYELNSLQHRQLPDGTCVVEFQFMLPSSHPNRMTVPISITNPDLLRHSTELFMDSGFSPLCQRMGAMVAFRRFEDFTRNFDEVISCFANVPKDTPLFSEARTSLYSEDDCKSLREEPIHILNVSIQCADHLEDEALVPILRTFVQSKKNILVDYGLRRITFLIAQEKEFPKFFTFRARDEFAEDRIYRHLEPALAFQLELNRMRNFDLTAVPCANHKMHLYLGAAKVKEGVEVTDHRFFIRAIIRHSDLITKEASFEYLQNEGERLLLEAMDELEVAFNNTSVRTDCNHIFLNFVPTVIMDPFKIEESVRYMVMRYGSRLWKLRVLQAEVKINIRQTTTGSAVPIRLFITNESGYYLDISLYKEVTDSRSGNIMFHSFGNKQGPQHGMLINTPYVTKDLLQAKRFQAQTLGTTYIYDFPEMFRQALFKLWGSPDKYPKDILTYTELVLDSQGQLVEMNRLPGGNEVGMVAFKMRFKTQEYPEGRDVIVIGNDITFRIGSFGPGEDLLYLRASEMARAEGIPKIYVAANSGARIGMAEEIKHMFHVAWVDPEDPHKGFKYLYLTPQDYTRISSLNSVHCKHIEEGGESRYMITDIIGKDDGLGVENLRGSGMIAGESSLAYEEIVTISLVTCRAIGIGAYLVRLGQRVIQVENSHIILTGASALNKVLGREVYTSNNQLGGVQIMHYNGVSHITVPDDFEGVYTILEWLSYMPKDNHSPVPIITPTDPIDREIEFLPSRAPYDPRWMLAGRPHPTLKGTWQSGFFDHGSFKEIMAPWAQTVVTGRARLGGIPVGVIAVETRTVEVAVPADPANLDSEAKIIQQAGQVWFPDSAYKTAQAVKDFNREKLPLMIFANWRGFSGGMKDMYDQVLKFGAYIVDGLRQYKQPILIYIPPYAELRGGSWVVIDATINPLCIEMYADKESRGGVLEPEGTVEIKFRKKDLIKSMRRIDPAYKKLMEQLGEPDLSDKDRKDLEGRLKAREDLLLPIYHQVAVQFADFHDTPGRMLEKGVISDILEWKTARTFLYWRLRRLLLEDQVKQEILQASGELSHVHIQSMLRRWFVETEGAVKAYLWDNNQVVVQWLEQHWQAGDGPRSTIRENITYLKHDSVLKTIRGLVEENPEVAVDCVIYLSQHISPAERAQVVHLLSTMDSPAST
The next experiment deals with MCF7. In words: Cell proliferation assay (CellTiter-Glo, 96 h), MCF7. It is filed as cell-based. The following applies: Homo sapiens. In outline: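 Tumour cells are plated overnight, a baseline luminescence plate is read, and parallel plates receive compound for 96 hours at 37° C. before CellTiter-Glo measurement. Percent inhibition uses baseline-subtracted values relative to untreated cells.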
(In general: In ATP-based viability assays light output follows the ATP content of the culture.)

In experiment [2] the test system is malonyl-CoA in a tumour (human MCF-7 breast cancer cells). In words: Mode-of-action experiment: intratumour malonyl-CoA in MCF-7 tumours after oral administration. The class given is in vivo, female nude mice (NMRI-nude (nu/nu)). The following applies: Mus musculus, after 7 h. The procedure:
Mode-of-Action Experiment
Prior to the determination of the activity in the MCF-7 model, some of the test substances were examined in a “mode of action” experiment. The principle of this experiment is that short-term application of a test substance capable of inhibiting ACC1 and/or ACC2 in a living organism after oral administration reduces malonyl-CoA in a tumour. To this end, in the experiment 2 million human MCF-7 breast cancer cells were injected subcutaneously into female nude mice (NMRI-nude (nu/nu) mice, Taconic M&B A/S, 1 day beforehand administration of a pellet for the release of oestrogen over a period of at least 60 days). Once the tumour extended to an area of about 60-70 mm^2, the test substance was administered orally over a period of 1-3 days, and at defined points in time the intratumour content of malonyl-CoA was then determined and compared to the vehicle control. The method is described in Anal Chem 2008 Aug. 1; 80(15):5736-42. Epub 2008 Jul. 9.).

For experiment [3], the target named is T1, human ACC1 (acetyl-coenzyme A carboxylase alpha transcript variant 1) (Homo sapiens, UniProt Q13085).
T1 construct: FLAG (C); made in house; host or cells: baculovirus-infected insect cells (Hi5)
The experiment is described as follows: Human ACC1 enzyme assay, Assay B1 (ADP-Glo). It is filed as biochemical.

A further experiment concerns the target recombinant human ACC1 (Homo sapiens, UniProt Q13085). The experiment is described as follows: Human ACC1 enzyme assay, Assay A1 (HTRF ADP immunoassay). (In general: In TR-FRET formats the signal depends on donor and acceptor labels being close together.);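 further: ADP generated by the enzyme quantified via competitive time-resolved FRET, read as europium cryptate to d2 energy transfer after 1 h at 22 °C with labelled ADP tracer and anti-ADP antibody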
Experiment [4] has as its target acetyl-CoA carboxylase 2 (ACC2) (Homo sapiens, UniProt O00763). The experiment is described as follows: Human ACC2 enzyme assay, Assay A2 (HTRF ADP immunoassay).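 Further: ADP generated by ACC2 quantified via competitive time-resolved FRET between europium cryptate anti-ADP antibody and d2-tagged ADP, enzyme kept in linear range near 0.6 ng/µl.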
Where [5] appears, read: MCF7, Table 7, 96-hour incubation.
The mark [6] stands for this setting: Assay B1, read-out: ACC 1 (=B1) IC50.

Chain of acetyl-CoA carboxylase 2 (ACC2) (O00763 39-2458 limits assumed): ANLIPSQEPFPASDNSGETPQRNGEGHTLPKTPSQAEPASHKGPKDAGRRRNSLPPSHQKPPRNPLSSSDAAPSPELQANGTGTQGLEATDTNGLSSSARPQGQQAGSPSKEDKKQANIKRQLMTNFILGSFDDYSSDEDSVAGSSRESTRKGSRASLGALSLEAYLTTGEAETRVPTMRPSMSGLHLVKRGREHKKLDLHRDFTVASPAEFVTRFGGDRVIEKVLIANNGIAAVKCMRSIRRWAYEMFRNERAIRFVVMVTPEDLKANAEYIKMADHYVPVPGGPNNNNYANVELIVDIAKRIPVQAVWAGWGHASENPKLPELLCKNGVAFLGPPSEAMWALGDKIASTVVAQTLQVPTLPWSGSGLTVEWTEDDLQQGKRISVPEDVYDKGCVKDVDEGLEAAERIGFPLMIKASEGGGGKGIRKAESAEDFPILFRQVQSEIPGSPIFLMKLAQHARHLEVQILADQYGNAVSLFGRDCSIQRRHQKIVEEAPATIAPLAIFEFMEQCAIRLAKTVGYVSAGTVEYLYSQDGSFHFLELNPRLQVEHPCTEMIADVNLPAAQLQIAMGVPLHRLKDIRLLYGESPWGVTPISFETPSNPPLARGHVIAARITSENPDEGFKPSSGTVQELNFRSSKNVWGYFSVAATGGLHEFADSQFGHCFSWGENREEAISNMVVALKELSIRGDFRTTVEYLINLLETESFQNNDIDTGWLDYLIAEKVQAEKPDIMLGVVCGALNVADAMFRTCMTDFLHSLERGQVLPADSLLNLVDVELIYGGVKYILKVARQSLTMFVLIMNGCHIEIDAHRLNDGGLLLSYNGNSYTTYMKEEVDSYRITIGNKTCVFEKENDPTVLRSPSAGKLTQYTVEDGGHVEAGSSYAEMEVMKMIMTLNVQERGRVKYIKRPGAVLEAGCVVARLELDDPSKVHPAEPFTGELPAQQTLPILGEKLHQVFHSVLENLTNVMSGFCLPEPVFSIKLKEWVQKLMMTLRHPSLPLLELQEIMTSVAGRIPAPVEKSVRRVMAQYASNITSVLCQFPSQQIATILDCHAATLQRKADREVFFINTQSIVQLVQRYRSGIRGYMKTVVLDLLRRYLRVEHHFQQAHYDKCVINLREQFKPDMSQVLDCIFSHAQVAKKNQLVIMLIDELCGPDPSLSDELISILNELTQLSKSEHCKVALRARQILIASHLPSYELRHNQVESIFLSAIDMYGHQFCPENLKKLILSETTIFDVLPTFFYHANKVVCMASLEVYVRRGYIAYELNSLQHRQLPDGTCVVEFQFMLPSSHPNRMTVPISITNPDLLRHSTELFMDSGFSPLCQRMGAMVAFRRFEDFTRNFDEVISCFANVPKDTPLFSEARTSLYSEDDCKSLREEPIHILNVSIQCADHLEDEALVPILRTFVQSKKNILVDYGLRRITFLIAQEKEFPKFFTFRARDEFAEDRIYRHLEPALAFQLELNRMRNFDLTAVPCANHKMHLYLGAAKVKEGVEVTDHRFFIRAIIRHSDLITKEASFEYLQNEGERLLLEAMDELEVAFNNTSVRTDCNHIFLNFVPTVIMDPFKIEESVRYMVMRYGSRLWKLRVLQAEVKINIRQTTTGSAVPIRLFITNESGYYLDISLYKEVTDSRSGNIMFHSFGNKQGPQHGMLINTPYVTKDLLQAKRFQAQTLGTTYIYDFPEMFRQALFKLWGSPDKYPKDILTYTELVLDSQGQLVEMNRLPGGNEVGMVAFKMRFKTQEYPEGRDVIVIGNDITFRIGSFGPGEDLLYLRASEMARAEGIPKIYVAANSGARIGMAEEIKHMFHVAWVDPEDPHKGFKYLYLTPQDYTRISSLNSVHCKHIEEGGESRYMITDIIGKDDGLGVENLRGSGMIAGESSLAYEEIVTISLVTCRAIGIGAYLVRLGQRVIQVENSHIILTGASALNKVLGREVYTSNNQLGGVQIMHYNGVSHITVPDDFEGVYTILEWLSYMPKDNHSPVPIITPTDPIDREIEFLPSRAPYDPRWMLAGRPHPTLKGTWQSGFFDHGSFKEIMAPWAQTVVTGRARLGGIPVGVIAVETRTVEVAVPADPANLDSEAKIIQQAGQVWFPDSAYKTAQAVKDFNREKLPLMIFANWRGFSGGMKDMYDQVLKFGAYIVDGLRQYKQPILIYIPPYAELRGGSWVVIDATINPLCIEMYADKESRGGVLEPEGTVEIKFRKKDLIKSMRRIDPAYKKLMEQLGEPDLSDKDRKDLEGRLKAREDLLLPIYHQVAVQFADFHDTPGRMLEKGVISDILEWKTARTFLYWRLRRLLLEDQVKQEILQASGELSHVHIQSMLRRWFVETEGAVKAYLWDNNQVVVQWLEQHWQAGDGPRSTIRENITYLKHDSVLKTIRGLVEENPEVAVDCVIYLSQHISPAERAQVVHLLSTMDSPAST

Take `COCC1CCC2(CC1)NC(=O)C(c1cc(-c3ccc(Cl)cc3)ccc1Cl)=C2O` (centres unmarked) [1-54, 3-(4,4′-dichlorobiphenyl-3-yl)-4-hydroxy-8-(methoxymethyl)-1-azaspiro[4.5]dec-3-en-2-one]: the IC50 is 1350 nM in experiment [1], 88 nM in the experiment with MCF7 (setting [5]) and 157 nM in experiment [3]. The same molecule yielded an inhibition in vivo at 10 mg/kg in experiment [2] (MCF7, po, 10 mg/kg, vs Vehicle) of 61%.
`Cc1ccc(-c2ccc(Cl)cc2)cc1C1=C(O)C2(CCCOC2)NC1=O` (centres unmarked) [1-5, 3-(4′-chloro-4-methylbiphenyl-3-yl)-4-hydroxy-7-oxa-1-azaspiro[4.5]dec-3-en-2-one]: the IC50 came out at 11000 nM in experiment [1], 230 nM with MCF7 (setting [5]) and 246 nM in experiment [3] (setting [6]). This molecule displayed an inhibition in vivo at 10 mg/kg in experiment [2] (MCF7, po, 10 mg/kg, vs Vehicle) of 82%.
Turning to `Cc1ccc(-c2ccc(Cl)cc2)cc1C1=C(O)C2(CCC(C(C)C)CC2)NC1=O` (centres unmarked) [1-24, 3-(4′-chloro-4-methylbiphenyl-3-yl)-4-hydroxy-8-(propan-2-yl)-1-azaspiro[4.5]dec-3-en-2-one], the values for the concentration for half-maximal inhibition (IC50) (in experiment [1]; in the experiment on MCF7 (setting [5]); in experiment [3] (setting [6])) were 517 nM, 27 nM and 230 nM, respectively. Besides, the inhibition in vivo at 10 mg/kg in experiment [2] (MCF7, po, 10 mg/kg, vs Vehicle) worked out at 91%.
Consider `COC1CCC2(CC1)NC(=O)C(c1cc(-c3ccc(Cl)cc3)c(C)cc1C)=C2O` (centres unmarked) [1-7, 3-(4′-chloro-4,6-dimethylbiphenyl-3-yl)-4-hydroxy-8-methoxy-1-azaspiro[4.5]dec-3-en-2-one], for which the results for the IC50 (in experiment [1]; in the experiment with MCF7 (setting [5]); in experiment [3]) were 328 nM, 57 nM and 1460 nM, respectively. Further, in experiment [2] (MCF7, po, 10 mg/kg, vs Vehicle), the inhibition in vivo at 10 mg/kg came out at 89%.
Take `Cc1ccc(-c2ccc(Cl)cc2)cc1C1=C(O)[C@]2(CC[C@H](C)CC2)NC1=O` [1-76, 3-(4′-chloro-4-methylbiphenyl-3-yl)-4-hydroxy-8-methyl-1-azaspiro[4.5]dec-3-en-2-one]: the half-maximal inhibitory concentration (IC50) in experiment [1] was determined as 432 nM; in experiment [3] (setting [6]), 163 nM. In addition, the inhibition in vivo at 10 mg/kg in experiment [2] (MCF7, po, 10 mg/kg, vs Vehicle) turned out to be 96%.
For the molecule `COCC1CCC2(CC1)NC(=O)C(c1c(C)ccc(-c3ccc(Cl)cc3)c1C)=C2O` (centres unmarked) [1-53, 3-(4′-chloro-2,4-dimethylbiphenyl-3-yl)-4-hydroxy-8-(methoxymethyl)-1-azaspiro[4.5]dec-3-en-2-one], the half-inhibitory concentration (IC50) amounted to 632 nM in experiment [1], 70 nM in the experiment on MCF7 (setting [5]) and 243 nM in experiment [3]. Further, the inhibition in vivo at 10 mg/kg in experiment [2] (MCF7, po, 10 mg/kg, vs Vehicle) turned out to be 43%.
For `Cc1ccc(-c2ccc(Cl)cc2)cc1C1=C(O)C2(CCC(OCC(F)(F)F)CC2)OC1=O` (centres unmarked) [2-33, 3-(4′-chloro-4-methylbiphenyl-3-yl)-4-hydroxy-8-(2,2,2-trifluoroethoxy)-1-oxaspiro[4.5]dec-3-en-2-one], the concentration for half-maximal inhibition (IC50) amounted to 5000 nM in experiment [1]; 246 nM with MCF7 (MCF7 cells); 227 nM in experiment [3] (Assay B1, ADP-Glo, read-out: ACC 1 (=B1) IC50). In addition, the inhibition in vivo at 10 mg/kg in experiment [2] (MCF7, 10 mg/kg oral, MCF-7 tumour in nude mice, vs vehicle) came to 39%.
Turning to `CO[C@]1(C)CC[C@]2(CC1)NC(=O)C(c1c(C)ccc(-c3ccc(Cl)cc3)c1C)=C2O` [1-87, (5r,8r)-3-(4′-chloro-2,4-dimethylbiphenyl-3-yl)-4-hydroxy-8-methoxy-8-methyl-1-azaspiro[4.5]dec-3-en-2-one], the 50% inhibitory concentration (IC50) in experiment [1] came out at 10500 nM; on recombinant human ACC1, 540 nM; in experiment [4], 7300 nM; in experiment [3] it was 378 nM. In experiment [2] (MCF7, po, 10 mg/kg, vs Vehicle), the inhibition in vivo at 10 mg/kg came out at 71%.
As for `Cc1ccc(-c2ccc(F)c(F)c2)cc1C1=C(O)C2(CCC3(CCCO3)CC2)NC1=O` (centres unmarked) [1-35, 11-(3′,4′-difluoro-4-methylbiphenyl-3-yl)-12-hydroxy-1-oxa-9-azadispiro[4.2.4.2]tetradec-11-en-10-one], the IC50 amounted to 6910 nM in experiment [1], 94 nM in the experiment with MCF7 (setting [5]) and 388 nM in experiment [3]. The inhibition in vivo at 10 mg/kg in experiment [2] (MCF7, po, 10 mg/kg, vs Vehicle) was found to be 31%.
Turning to `CO[C@H]1CC[C@]2(CC1)NC(=O)C(c1cc(-c3ccc(Cl)cc3)ccc1C)=C2O` [1-2, (5s,8s)-3-(4′-chloro-4-methylbiphenyl-3-yl)-4-hydroxy-8-methoxy-1-azaspiro[4.5]dec-3-en-2-one], the half-inhibitory concentration (IC50) came out at 822 nM in experiment [1] and 57 nM in the experiment with MCF7 (setting [5]). This molecule also registered an inhibition in vivo at 10 mg/kg in experiment [2] (MCF7, po, 10 mg/kg, vs Vehicle) of 96%.
As for `Cc1ccc(-c2ccc(Cl)cc2)cc1C1=C(O)C2(CCC(C)(C)CC2)NC1=O` [1-20, 3-(4′-chloro-4-methylbiphenyl-3-yl)-4-hydroxy-8,8-dimethyl-1-azaspiro[4.5]dec-3-en-2-one], the IC50 amounted to 1130 nM in experiment [1], 40 nM in the experiment with MCF7 (setting [5]) and 230 nM in experiment [3] (setting [6]). In experiment [2] (MCF7, po, 10 mg/kg, vs Vehicle), this molecule came in with an inhibition in vivo at 10 mg/kg of 87%.
On to `O=C1N[C@]2(CC[C@@H](C(F)(F)F)CC2)C(O)=C1c1cc(-c2ccc(Cl)cc2)ccc1Cl` [1-134, (5s,8s)-3-(4,4′-Dichlorobiphenyl-3-yl)-4-hydroxy-8 (trifluoromethyl)-1-azaspiro[4.5]dec-3-en-2-one], for which the half-inhibitory concentration (IC50) in experiment [1] stood at 2850 nM; at recombinant human ACC1 it was 299 nM; in the experiment with MCF7 (setting [5]), 114 nM; in experiment [4] it was 1310 nM; in experiment [3] (setting [6]), 109 nM.
Consider `CO[C@H]1CC[C@]2(CC1)NC(=O)C(c1cc(-c3ccc(Cl)cc3F)ccc1C)=C2O` [1-142, (5s,8s)-3-(4′-Chloro-2′-fluoro-4-methylbiphenyl-3-yl)-4-hydroxy-8-methoxy-1-azaspiro[4.5]dec-3-en-2-one], for which the concentration for half-maximal inhibition (IC50) in experiment [1] was determined as 957 nM; at recombinant human ACC1 it was 337 nM; in the experiment with MCF7 (setting [5]), 106 nM; in experiment [4] it was 551 nM; in experiment [3], 704 nM.
As for `Cc1cc(F)c(-c2ccc(Cl)cc2)cc1C1=C(O)[C@]2(CC[C@](O)(C(F)(F)F)CC2)NC1=O` [1-127, (5r,8r)-3-(4′-Chloro-6-fluoro-4-methylbiphenyl-3-yl)-4,8-dihydroxy-8-(trifluoromethyl)-1-azaspiro[4.5]dec-3-en-2-one], the half-maximal inhibitory concentration (IC50) is 13400 nM in experiment [1]; 216 nM on recombinant human ACC1; 1400 nM with MCF7 (setting [5]); 4840 nM in experiment [4]; 145 nM in experiment [3] (setting [6]).
`Cc1ccc(-c2ccc(Cl)cc2)c(C)c1C1=C(O)[C@]2(CC[C@H](OCC(F)(F)F)CC2)NC1=O` [1-30, (5s,8s)-3-(4′-chloro-2,4-dimethylbiphenyl-3-yl)-4-hydroxy-8-(2,2,2-trifluoroethoxy)-1-azaspiro[4.5]dec-3-en-2-one]: the 50% inhibitory concentration (IC50) in experiment [1] amounted to 976 nM; in the experiment with MCF7 (setting [5]), 48 nM; in experiment [3] (setting [6]) it was 481 nM. Further, 10 mg/kg produced 82% inhibition in vivo in experiment [2] (MCF7, po, 10 mg/kg, vs Vehicle).
On to `Cc1ccc(-c2ccc(Cl)cc2)cc1C1=C(O)[C@]2(CC[C@H](C(F)(F)F)CC2)NC1=O` [1-119, (5s,8s)-3-(4′-Chloro-4 methylbiphenyl-3-yl)-4-hydroxy-8-(trifluoromethyl)-1-azaspiro[4.5]dec-3-en-2-one], for which the IC50 in experiment [1] stood at 1080 nM; at recombinant human ACC1, 203 nM; with MCF7 (setting [5]), 37 nM; in experiment [4] it was 479 nM; in experiment [3] (setting [6]), 110 nM.
Turning to `O=C1N[C@]2(CCC[C@H](C(F)(F)F)C2)C(O)=C1c1cc(-c2ccc(Cl)cc2)ccc1Cl` [1-137, (5S,7S)-3-(4,4′-Dichlorobiphenyl-3-yl)-4-hydroxy-7-(trifluoromethyl)-1-azaspiro[4.5]dec-3-en-2-one], the half-maximal inhibitory concentration (IC50) in experiment [1] stood at 7490 nM; at recombinant human ACC1, 307 nM; in the experiment with MCF7 (setting [5]) it was 439 nM; in experiment [4], 7750 nM; in experiment [3], 168 nM.
The matching figures for `Cc1ccc(-c2ccc(Cl)cc2)cc1C1=C(O)[C@]2(CC[C@H](CO)CC2)NC1=O` [1-117, (5s,8s)-3-(4′-Chloro-4 methylbiphenyl-3-yl)-4-hydroxy-8-(hydroxymethyl)-1-azaspiro[4.5]dec-3-en-2-one]: 4110 nM, 232 nM, 64 nM, 812 nM and 194 nM.
As to `Cc1ccc(-c2ccc(Cl)cc2)c(C)c1C1=C(O)[C@]2(CC[C@](O)(C(F)(F)F)CC2)NC1=O` [1-125, (5r,8r)-3-(4′-Chloro-2,4-dimethylbiphenyl-3-yl)-4,8-dihydroxy-8-(trifluoromethyl)-1-azaspiro[4.5]dec-3-en-2-one], the IC50 in experiment [1] amounted to 6770 nM; at recombinant human ACC1 it was 281 nM; in the experiment on MCF7 (setting [5]) it was 322 nM; in experiment [4], 3990 nM; in experiment [3] (setting [6]), 217 nM.
On to `COC1CCC2(CC1)NC(=O)C(c1cc(-c3ccc(Cl)cc3)ccc1Cl)=C2O` (centres unmarked) [1-11, 3-(4,4′-dichlorobiphenyl-3-yl)-4-hydroxy-8-methoxy-1-azaspiro[4.5]dec-3-en-2-one], for which the concentration for half-maximal inhibition (IC50) was 4470 nM in experiment [1], 124 nM in the experiment on MCF7 (setting [5]) and 157 nM in experiment [3]. In addition, at 10 mg/kg the inhibition in vivo in experiment [2] (MCF7, po, 10 mg/kg, vs Vehicle) was 87%.
